Where a name gives a salt, the structure may show the parent alone.
System: passive cutaneous anaphylaxis using rat homocytotropic antibody
Experiment: rat passive cutaneous anaphylaxis test (rat PCA test)
Format: in vivo
Description: The technique employed to establish the anti-allergic activity of the 1H-tetrazole-5-carboxamide derivatives is reported in Immunology, vol. 16, pp. 749-760 (1969) and involves four male Charles River rats (200-250 grams body weight) per group to provide a control, a host for administration of a standard anti-allergic compound (disodium cromoglycate) and animals for the test compound. The rats were injected intracutaneously on their shaved backs with sera from rats immunized with egg albumin and pertussis vaccine. Twenty-four hours after the initial injections, the test compound is administered intraperitoneally or orally at a dosage level of 200 milligrams per kilogram host body weight or less. Five minutes later one milliliter of a 0.5 percent solution of Evans blue dye and 8 milligrams of egg albumin is injected intravenously. After 40 minutes, the animal is sacrificed and the bleb size on its back is measured. The mean bleb size for the animals administered the test compound is calculated and the percent inhibition is determined by comparison with the control animal.
In other words, the compounds of this invention block the release of mediators commonly resulting from the antigen-antibody reaction as exemplified in a passive cutaneous anaphylaxis test (PCA) using rat homocytotropic antibody -- a known correlate of human reaginic antibody.

O=C(Nc1ccccn1)c1nn[nH]n1 [Example 1, N-(2-Pyridinyl)-1H-tetrazole-5-carboxamide, sodium salt]
% inhibition (intraperitoneal (i.p.), dose 1.0 mg/kg): 82.6%
% inhibition (intraperitoneal (i.p.), dose 10 mg/kg): 99.0%
% inhibition (intraperitoneal (i.p.), dose 100 mg/kg): 72.5%
% inhibition (intraperitoneal (i.p.), dose .01 mg/kg): 24.8%
% inhibition (intraperitoneal (i.p.), dose .1 mg/kg): 41.9%
% inhibition (oral (p.o.), dose 1 mg/kg): 62.6%
% inhibition (oral (p.o.), dose 10 mg/kg): 94.8%
% inhibition (oral (p.o.), dose 100 mg/kg): 100.0%
% inhibition (oral (p.o.), dose .01 mg/kg): 40.4%
% inhibition (oral (p.o.), dose .1 mg/kg): 25.1%
